# Where two headings read alike, the source gives them in different places.
# Experiments:
# [1] = Transient expression level of IL-2 Fc fusion constructs in HEK-293F cells; conditions: Isoleucine-125 constructs
# Method: The constructs were produced by co-transfecting HEK293-F cells growing in suspension with the mammalian expression vectors using polyethylenimine (PEI, 25,000 MW linear, Polysciences). If there were two or more expression vectors, the vectors were transfected in a 1:1 ratio. For transfection, HEK293 cells were cultivated in serum free FreeStyle™ 293 Expression Medium (ThermoFisher). For production in 1000 ml shaking flasks (working volume 330 mL), HEK293 cells were seeded at a density of 0.8×10^6 cells/ml 24 hours before transfection. A total of 330 μg of DNA expression vectors were mixed with 16.7 ml Opti-mem Medium (ThermoFisher). After addition of 0.33 mg PEI diluted in 16.7 ml Opti-mem Medium, the mixture was vortexed for 15 sec and subsequently incubated for 10 min at room temperature. The DNA/PEI solution was then added to the cells and incubated at 37° C. in an incubator with 8% CO2. Sodium butyrate (Millipore Sigma) was added to the cells at day 4 at a final concentration of […] to help sustain protein expression. After 6 days cultivation, supernatant was collected for purification by centrifugation for 20 min at 2200 rpm. The solution was sterile filtered (0.22 μm filter, Corning). The secreted protein was purified from cell culture supernatants using Protein A affinity chromatography.
# S125I substitution was thus introduced into a number of IL-2 variant Fc fusion molecules. The constructs harboring Ile-125 substitution in IL-2 were expressed using the same vector and in the same culturing conditions as their Ser-125 counterparts and purified using MabSelectSure. The expression level in mg/L and purity assessed by SEC chromatography in aggregation % of exemplary molecules are summarized in Table 6. The two molecules in the same row of Table 6 share the same other amino acid substitution(s) and differ only at residue 125 with either serine or isoleucine. As an example, the SEC chromatogram and SDS-PAGE pictures of P-0447 (SEQ ID NO: 173) and its Ile-125 counterpart P-0511 (SEQ ID NO: 213) were further illustrated in FIGS. 1D and 1E.
# [2] = tested on: CD4+/Foxp3+/CD25+ Treg, CD4+/Foxp3-/CD25+ Teff and CD4+/Foxp3-/CD25- naive T cells; experiment: STAT5 phosphorylation in three CD4+ T cell subsets (Treg, CD4 effector, CD4 naive), human PBMC; assay type: cell-based
# Text: In addition to being assessed for their ability to differentially stimulate Stat5 phosphorylation in CD4 positive Treg (CD4+/Foxp3+/CD25^high) versus Tconv (CD4+/Foxp3−/CD25^low) cells, two variants, P-0511 and P-0512, were further assayed for their ability to stimulate other effector T and NK cells, including CD4 positive Teff (CD4+/Foxp3-/CD25+), CD8 cytotoxic T effector and NK cells in comparison to wild-type IL-2 (P-0250) and three IL-2 benchmark molecules containing V91K, N88R, N88D respectively.
# After human PBMC Cells were treated with serial dilutions of test compounds, fixed and permeabilized, washed, and stained with a mixture of anti-CD25-PE, anti-FOXP3-APC, anti-pSTAT5-FITC, and anti-CD4-PerCP-Cy5.5 antibodies, the flow cytometry analysis was gated into CD4+/Foxp3+/CD25+, CD4+/Foxp3−/CD25+, CD4+/Foxp3−/CD25− groups for the Treg, CD4 effector, and CD4 naive T cell subsets, respectively. Data are expressed as a percent of pStat5 positive cells in gated population and illustrated in FIG. 9.
# CD8+ T cells = experiment: CD8+ T cell proliferation, CFSE dilution, human PBMC; assay type: cell-based; conditions: 5 or 7 days incubation
# Method: Further, P-0511 and P-0512 were tested for their ability to stimulate NK and CD8+ T cells proliferation in comparison with the wild type and benchmark molecules. Intracellular fluorescent label carboxyfluorescein diacetate succinimidyl ester (CFSE) method was utilized. Briefly, human PBMC (1×10^5 cells/well) were labeled with CFSE, plated onto 96-well plates, and incubated with increasing concentrations of different IL-2 compounds. Cells were then harvested after 5 or 7 days of incubation and stained with either anti-CD56-APC antibody for NK cells or anti-CD8-APC antibody for CD8+ T cells; and analyzed by flow cytometry. Data are expressed as a percent of divided cells and illustrated in FIG. 10A for CD8+ T cell proliferation and FIG. 10B for NK cell proliferation.
# [3] = tested on: CD4+ Tconv cells, CD8 Teff and NK cells; experiment: Dose-response pharmacodynamics, CD4+ Tconv, CD8 and NK cells in mice (Example 10); assay type: in vivo, mouse; conditions: single s.c. dose, Balb/C mice
# Method: Following a single subcutaneous administration of vehicle (PBS) or P-0511 (1, 0.3, 0.1, or 0.03 mg/kg) to female Balb/C mice (n=5/group), peripheral blood was collected on day −2 as baseline, and post dose on days 3, 5, and 7. On day 7, mice were sacrificed, and spleens were harvested. Blood lymphocyte phenotyping, proliferation and expansion were measured by flow cytometry at each timepoint using fresh whole blood.
# Treg cells = experiment: Treg pharmacodynamics in mice after repeated administration Q3D (Example 11); assay type: in vivo, mouse; conditions: 0.3 mg/kg s.c.
# Method: Female Balb/C mice (7-week old) were acclimated in house for 5-7 days before the study. Vehicle (PBS), 0.3 mg/kg of P-0511, P-0512, P-0531, or Benchmark-1 compound were subcutaneously administered to mice (n=5/group) on days 0, 3, and 6. On days 3 and 9, three days after the first injection and multiple (3) injections, respectively, peripheral blood was collected. Based on earlier in vivo experiments, Treg cell activation, proliferation, and expansion were expected to peak on day 3, and thus three days post injection was selected for data collection and analysis. Changes in blood lymphocyte activation, proliferation, and expansion were measured by flow cytometry. P-0531 is the S125I equivalent of the wild type IL-2 fusion protein. The Benchmark-1 contains V91K mutation.
substance,measurement,setting,value
"P-0511: IL-2 L19H/S125I/Q126E Fc fusion, SEQ ID NO: 213",Expression,[1],26.6 mg/L
same,"pSTAT5 activity profile in Treg, Teff and naive CD4 T cell subsets (in words)",[2],preferential activation of Treg over Teff
same,"pSTAT5 activity profile in Treg, Teff and naive CD4 T cell subsets (in words)",[2]; listed as P-511,superior to both Benchmark-2 and -3
same,potency in stimulating CD8+ T cell proliferation (in words),CD8+ T cells,on par with Benchmark-3
same,"percentages of CD4+ Tconv, CD8 Teff and NK cells over the total lymphocytes",[3],no statistically significant changes
same,% Treg over total CD4 T cells or over total lymphocytes,Treg cells; after three consecutive Q3D treatments,sustained at significantly high levels
same,"Treg cell counts, fold changes relative to PBS and Treg/Tconv ratio",Treg cells; repeated dosing Q3D,superior capabilities to sustain Treg pool and maintain Treg selectivity
